Reference: US3985758A, “1,4-Dihydropyridine derivatives” (Yamanouchi Pharmaceutical Co., Ltd., priority 1973, dated 1976)
Values after ≈ are worked out from the molar mass of the structure shown. Structures can show the parent of a compound that is named as a salt. Where two headings read alike, the source gives them in different places.

Columns and labels:
[1] = in vivo; settings: dog, iv
[2] = system: femoral artery; assay: Direct vasodilating effect on femoral artery, constant volume perfusion; assay type: in vivo, mongrel dog; settings: intra-arterial; ±SE; maximum response to papaverine 3000 μg i.a. = 100%
Source text: For the analysis of the selective effect on vasculature by the drugs, direct effect on cerebral (vertebral artery) and peripheral (femoral artery) vascular bed were studied by the method of the constant volume perfusion.
(§1) Heparin (1000 μ/Kg, i.v.) was used as an anticoagulant. The methods for perfusion of each artery were as following: 1) For the vertebral artery, the arterial blood led from the left common carotid artery was collected by the tygon tubing and perfused by the Sigma-motor pump (Mippleport N.Y. T-8) into the right vertebral artery. 2) For the femoral artery, the arterial blood led from the proximal femoral artery was perfused by the Sigma-motor pump into the distal femoral artery. […] All drugs were given into a rubber tube connected close to the each arterial cannula by a microinjector (Jintan Terumo, NSN-100).

[3] = in vivo; settings: mouse, in vivo, iv
Description: (§2) LD50 was determined by using mice.
(§3) 2. Acute toxicity in mice
(§4) Male ICR weighing 25 to 32 g were used. The test compounds were injected into tail vein and LD 50 values were determined.

[4] = system: mice; assay: in vivo; settings: i.v.; mice
Description: as §2, §3, §4

[5] = system: vertebral artery; assay: Direct vasodilating effect on vertebral artery, constant volume perfusion; assay type: in vivo, mongrel dog; settings: intra-arterial
Source text: as §1

[6] = Solubility in water at 25° C; assay type: physicochemical
[7] = system: anesthetized dogs
[8] = system: vertebral and femoral blood flow; assay: Vertebral and femoral blood flow in anesthetized dogs; assay type: in vivo, mongrel dog; settings: 0.01 mg/kg i.v. (0.01 or 0.03 mg/kg); for Blood pressure change (Δ mmHg): femoral artery; for Separation ratio (percent increase of vertebral blood flow / that of femoral blood flow): significance vs SKF 24260
Description: Vertebral and femoral blood flow in anesthetized dogs.
Mongrel dogs of both sexes weighing from 12 to 27 kg were anesthetized with sodium pentobarbitol (30 mg/kg i.v.). In all experiments, trachea was cannulated and the animals were artificially ventilated with room air. Blood pressure in cannulated femoral artery was measured by means of a pressure transducer (Nihon Kohden, MPU 0.5). Vertebral and femoral blood flow were measured by a noncannulating electromagnetic flowmeter (Nihon Kohden, MF-25) positioned around the vessels. Recordings were made on an ink-writing polygraph (Nihon Kohden, RM-150 or RM-85). The test compounds were injected at a dose of 0.01 mg/kg into femoral vein.

[9] = system: guinea-pig ileum; assay: Spasmolytic activity in isolated guinea-pig ileum (Magnus apparatus); settings: Cavia porcellus, ±S.E.
Description: Methods: Isolated guinea-pig ileum was suspended in Tyrodes solution by use of Magnus apparatus and the movements of the muscle were recorded in a kymograph by an isotonic lever.

[10] = cited from earlier work
[11] = U.S. Pat. No. 3,511,837; cited from earlier work

COC(=O)C1=C(C)NC(C)=C(C(=O)OCCN(C)Cc2ccccc2)C1c1cccc([N+](=O)[O-])c1 (stereo not drawn) [Example 2, 2,6-dimethyl-4-(3'-nitrophenyl)-1,4-dihydropyridine-3,5-dicarboxylic acid 3-β-(N-benzyl-N-methylamino)ethyl ester 5-methyl ester hydrochloride]
LD50 [1]: 6.1 mg/kg
Vasodilation ED50, femoral artery [2]: 0.86 ± 0.11 µg
LD50 [3]: 20.7 mg/kg
LD50 [4]: 20.7 mg/kg
Selectivity ratio (ED50 in femoral artery/ED50 in vertebral artery) ([5]; anesthetized dogs): 1.30
Vasodilation ED50, vertebral artery ([5]; ±SE, maximum response to papaverine 3000 μg i.a. = 100%): 0.66 ± 0.20 µg
pH (of solubility determination) ([6]; compounds of the present invention, 25° C): 3.92
solubility ([6]; compounds of the present invention, 25° C, at the given pH, read-out: Solubility): 4900 µg/mL
Heart rate (Δbeats/min.±SE) ([7]; 0.0003 mg/Kg i.v.): 4±1.3 Δbeats/min.
Mean blood pressure (ΔmmHg±SE) ([7]; 0.0003 mg/Kg i.v.): -1±0.6 ΔmmHg
Vertebral blood flow (Δ%±SE) ([7]; 0.0003 mg/Kg i.v.): 27±4.4 Δ%
Heart rate (Δbeats/min.±SE) ([7]; 0.001 mg/Kg i.v.): 12±2.2 Δbeats/min.
Mean blood pressure (ΔmmHg±SE) ([7]; 0.001 mg/Kg i.v.): -7±1.5 ΔmmHg
Vertebral blood flow (Δ%±SE) ([7]; 0.001 mg/Kg i.v.): 61±9.5 Δ%
Heart rate (Δbeats/min.±SE) ([7]; 0.003 mg/Kg i.v.): 18±2.0 Δbeats/min.
Mean blood pressure (ΔmmHg±SE) ([7]; 0.003 mg/Kg i.v.): -14±2.2 ΔmmHg
Vertebral blood flow (Δ%±SE) ([7]; 0.003 mg/Kg i.v.): 132±13.8 Δ%
Heart rate (Δbeats/min.±SE) ([7]; 0.01 mg/Kg i.v.): 25±5.3 Δbeats/min.
Mean blood pressure (ΔmmHg±SE) ([7]; 0.01 mg/Kg i.v.): -29±3.6 ΔmmHg
Vertebral blood flow (Δ%±SE) ([7]; 0.01 mg/Kg i.v.): 200±27.3 Δ%
Femoral blood flow (FBF %) [8]: 51 ± 5.8%
Vertebral blood flow (VBF Δ %) [8]: 200 ± 27.3 Δ %
Blood pressure change (Δ mmHg) [8]: -29 ± 3.6 Δ mmHg
Separation ratio (percent increase of vertebral blood flow / that of femoral blood flow) [8]: 4.19 ± 0.69
IC50 ([9]; read-out: Spasmolytic activity, 50% inhibition of contractile response, Acetylchloline 10^-7 g/ml): 5.2 ng/mL
IC50 ([9]; read-out: Spasmolytic activity, 50% inhibition of contractile response, BaCl2 2×10^-4 g/ml): 1.9 ng/mL
IC50 ([9]; read-out: Spasmolytic activity, 50% inhibition of contractile response, Histamine 10^-7 g/ml): 1.8 ng/mL

CCOC(=O)C1=C(C)NC(C)=C(C(=O)OCC)C1c1ccccc1C(F)(F)F [SKF 24260, 3,5-dicarbethoxy-1,4-dihydro-2,6-dimethyl-4-(2-trifluoromethylphenyl) pyridine, reference compound]
LD50 [3]: 0.8 mg/kg
pH (of solubility determination) ([6]; known compounds, 25° C): 5.40
solubility ([6]; known compounds, 25° C, at the given pH, read-out: Solubility): 10 µg/mL (≈ 25.2 µM)
solubility ([6]; known compounds, pH 4.00, 25° C, read-out: Solubility at pH 4.00): 10 µg/mL (≈ 25.2 µM)
Water-solubility (in words) [10]: very poorly water-soluble
Femoral blood flow (FBF %) [8]: 165 ± 40%
Vertebral blood flow (VBF Δ %) [8]: 144 ± 17.7 Δ %
Blood pressure change (Δ mmHg) [8]: -44 ± 4.8 Δ mmHg
Separation ratio (percent increase of vertebral blood flow / that of femoral blood flow) [8]: 0.93 ± 0.11
Hypotensive activity [11]: shows hypotensive activity
